Experimental data as given in publication PMC12472303 (2025).

Tests used:
[1] = system: Tel22 (DNA, G4) AGGGTTAGGGTTAGGGTTAGGG; test: fluorimetric titration, SPECFIT; settings: Na+ (sodium cacodylate, I = 0.1 M), pH 7.0, <0.1% DMSO
[2] = system: poly dAdT-poly dAdT (DNA, polymer) AT; test: UV thermal melting at 260 nm; settings: Na+ (sodium cacodylate, I = 0.05 M), pH 7.0, polynucleotide 20 µM nucleotide, r [compound]/[polynucleotide] = 0.3, error ±0.5 °C, per base
[3] = system: poly rA-poly rU (RNA, polymer) A/U; test: UV thermal melting at 260 nm; settings: Na+ (sodium cacodylate, I = 0.05 M), pH 7.0, polynucleotide 20 µM nucleotide, r [compound]/[polynucleotide] = 0.3, error ±0.5 °C, per base
[4] = system: Tel22 (DNA, G4) AGGGTTAGGGTTAGGGTTAGGG; test: UV thermal melting at 260 nm; settings: Na+ (sodium cacodylate, I = 0.1 M), pH 7.0, Tel22 1–2 µM, r [compound]/[Tel22] = 4
[5] = system: poly dAdT-poly dAdT (DNA, polymer) AT; test: fluorimetric titration, Scatchard; settings: Na+ (sodium cacodylate, I = 0.05 M), pH 7.0, per phosphate (nucleotide), n fixed at 0.2, <0.1% DMSO, per base
[6] = system: poly dGdC-poly dGdC (DNA, polymer) GC; test: fluorimetric titration, Scatchard; settings: Na+ (sodium cacodylate, I = 0.05 M), pH 7.0, per phosphate (nucleotide), n fixed at 0.2, <0.1% DMSO, per base
[7] = Na-cacodylate buffer, concentration as oligonucleotide

Compound	log K1 [1, 7] [log K]	ΔTm [2]	ΔTm [3]	log K1 ([1]; Na-cacodylate, second step LG + G = LG2 log K2 5.07 ± 0.26) [log K]	binding [4]	log Ks [5] [log Ks]	log Ks [6] [log Ks]
N=C(N)Nc1ccc2c3c(cccc13)-c1ccccc1-2	5.26 ± 0.13	0 °C	+0.9 °C	–	–	–	–
N=C(N)Nc1ccc(-c2c3nc(c(-c4ccccc4)c4ccc([nH]4)c(-c4ccccc4)c4nc(c(-c5ccccc5)c5ccc2[nH]5)C=C4)C=C3)cc1	–	–	–	7.23 ± 0.49	–	–	–
N=C(N)Nc1ccc2ccccc2c1	5.36 ± 0.07	0 °C	0 °C	–	weak	4.17	–
NC(N)=Nc1cc2ccccc2c2ccccc12	5.61 ± 0.02	+0.9 °C	+1.3 °C	–	–	6.27	5.34
N=C(N)Nc1ccc2c(c1)Cc1ccccc1-2	5.78 ± 0.08	0 °C	−1.0 °C	–	–	–	–
